Where two headings read alike, the source gives them in different places.
Tests used:
[1] = molecular target: T1, LRAT (Bos taurus, UniProt Q9BGL2); experiment: In vitro Microsomal Esterification of Retinol, LRAT catalyzed; type: biochemical, bovine; settings: 1 hour at 37° C., pH 7
T1 construct: microsomal fraction isolated from bovine retinal pigment epithelial cells; from tissue; host or cells: microsomes of bovine retinal pigment epithelial cells
T1 sequence (Q9BGL2 1-230): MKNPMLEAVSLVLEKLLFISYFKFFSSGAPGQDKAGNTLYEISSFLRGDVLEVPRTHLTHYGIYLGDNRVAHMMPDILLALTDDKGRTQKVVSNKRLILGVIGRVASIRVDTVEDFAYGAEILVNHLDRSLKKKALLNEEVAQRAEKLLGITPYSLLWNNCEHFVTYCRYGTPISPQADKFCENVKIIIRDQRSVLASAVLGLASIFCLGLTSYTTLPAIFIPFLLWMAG
Experimental: (§1) Microsomes are obtained as described in: J. C. Saari and D. L. Bredberg, "CoA and Non-CoA Dependent Retinol Esterification in Retinal Figment Epithelium" J. Biol. Chem. 263, 8084-90 (1988).
(§2) A solution containing 0.1M sodium phosphate pH 7 buffer, 5 mM dithiothreitol, 2 mg/ml bovine serum albumin, 40 micromolar palmitoyl CoA, 40 micromolar dilauroyl phosphatidyl choline, 10 micromolar retinol and a test compound or a solvent blank, is incubated for 1 hour at 37° C. with a microsomal fraction isolated from bovine retinal pigment epithelial cells. After incubation, the reaction was quenched by addition of an equal volume of ethanol, and the retinyl esters formed (retinyl laurate from the LRAT catalyzed reaction and retinyl palmitate from ARAT catalyzed reaction) are extracted with hexane. The hexane layer is removed, evaporated under nitrogen, and the residue analyzed by HPLC on a 3.9×300 mm C18 reversed phase column using a 80% methanol in tetrahydrofuran mobile phase and fluorescence detection (325 nm excitation, 480 nm emission) to quantitate the retinyl ester. The quantity of ester formed in the presence of the solvent blank is taken as 100%, and this is used to calculate the percent inhibition of ester formation for the compounds tested. As a control, an aliquot of microsomes is inactivated by boiling for 5 minutes, which results in at least 95% inhibition of ester formation. […]

[2] = system: ARAT; experiment: In vitro Microsomal Esterification of Retinol, ARAT catalyzed; type: biochemical, bovine; settings: 100 μM; 1 hour at 37° C.; pH 7
Experimental: as §1, §2

[3] = system: Human keratinocytes (TGase I); experiment: Transglutaminase (TGase I) ELISA in cultured keratinocytes, normalized to DNA (Example 1); type: cell-based; settings: for dose dependence of decrease in transglutaminase level: 2.5×10^-7 M to 2.5×10^-9 M; for mean TGase/DNA × 10^-4 ± s.d: 72 hours, n = 3, Control 2.44 ± 0.24
Experimental: Human keratinocytes, isolated from neonatal foreskin by trypsin treatment were grown in Dulbecco Modification Eagle (DME) Hams F12 (1:1) medium/10% fetal calf serum in the presence of irradiated 3T3 mouse fibroblasts for establishing dividing keratinocyte colonies. Cells were grown under the above condition until their second passage and kept frozen for future use. Frozen second passage keratinocytes were thawed and plated into the above medium and grown for five days before they were switched to a serum-free MCDB 153-based medium keratinocyte growth medium (KGM) from Clonetics Corporation, San Diego, Calif., containing 0.15 mM Ca, or keratinocyte serum-free media (KSFM) from GIBCO containing 0.09 mM Ca). On day 7, when the cells were 80-90% confluent, they were trypsinized and plated in the serum-free medium for the various experiments.
(§3) During the process of terminal differentiation in the epidermis, a 15 nm thick layer of protein, known as the cornified envelope (CE) is formed on the inner surface of the cell periphery. The CE is composed of numerous distinct proteins which have been cross-linked together by the formation of N^ε -(γ-glutamyl) lysine isodipeptide bonds catalyzed by the action of at least two different transglutaminases (TGases) expressed in the epidermis. TGase I is expressed in abundance in the differentiated layers of the epidermis, especially the granular layer, but is absent in the undifferentiated basal epidermis. Thus TGase I is a useful marker of epidermal keratinocyte differentiation with high TGase I levels indicating a more differentiated state. An ELISA based TGase I assay, using a TGase I antibody, was used to assess the state of differentiation of the cultured keratinocytes in the examples that follow.
For Example 1, the following procedure was used:
Keratinocytes (cultured as described above) were plated in 96 well plates at a density of 3,000 cells per well in 200 μl media. After incubation for four days the media was changed to media containing test compounds (six replicates per test). The cells were cultured for a further 72 hours after which time the media was aspirated and the plates stored at -70° C. Plates were removed from the freezer, and the cells washed with PBS. 100 μl sterile water was added and the cells were freeze fractured by freezing at -70° C. then thawing. The cells were incubated for one hour at room temperature (R/T) with PBS/3% BSA (wash buffer, bovine serum albumin), then rinsed with a fresh aliquot of wash buffer. Cells were incubated with 50 μl of primary antibodies monoclonal anti-human transglutaminase mouse antibody (IgG) obtained from Biomedical Industries diluted 1:2,000 in wash buffer for one hour, 37° C. then rinsed two times with wash buffer. Cells were then incubated with 50 μl of secondary antibody (Fab fragment, peroxidase conjugated anti-mouse IgG obtaining from Amersham) diluted 1:4,000 in wash buffer for one hour at 37° C., then rinsed two times with wash buffer. Cells were incubated with substrate solution (4 mg o-phenylene diamine and 3.3 μl 30% H2 O2 in 10 ml 0.1 M citrate buffer pH 5.0) for five minutes, R/T, in darkness (under aluminum foil). The reaction was stopped by the addition of 50 μl 4N H2 SO4. The absorbance of samples was read at 492 nm in the plate reader. Out of the six replicates, four were treated with both antibodies, two were treated only with the secondary antibody (i.e., to determine background binding of enzyme conjugated Ab). TGase levels were determined by subtracting background from the readings from each treatment and determining mean±s.d. for the replicates exposed to both Ab.
The level of TGase-1 detected after treatment of the cells could be influenced by cell number, i.e., the greater the number of cells the greater the level of TGase-1 detected. The level of TGase-1 was normalized to DNA content of the cells in the same well thus eliminating variation due to differences in cell number. […]

[4] = system: Human keratinocytes (TGase I); experiment: Transglutaminase (TGase I) ELISA in cultured keratinocytes, normalized to DNA (Example 3); type: cell-based; settings: for mean TGase/DNA × 10^5 ± s.d: Control 57.80 ± 8.61; for activity at 0.25 µM: Homo sapiens, Keratinocyte, read-out: mean TGase/DNA (% control)
Experimental: Human keratinocytes, isolated from neonatal foreskin by trypsin treatment were grown in Dulbecco Modification Eagle (DME) Hams F12 (1:1) medium/10% fetal calf serum in the presence of irradiated 3T3 mouse fibroblasts for establishing dividing keratinocyte colonies. Cells were grown under the above condition until their second passage and kept frozen for future use. […] On day 7, when the cells were 80-90% confluent, they were trypsinized and plated in the serum-free medium for the various experiments.
as §3
Keratinocytes (cultured as described above) were plated in 96 well plates at a density of 3,000 cells per well in 200 μl of cell culture media. After incubation for four days, the media was changed to media containing test compounds (six replicates per test). The cells were cultured for a further 72 hours after which time the media was aspirated and the plates stored at -70° C. After the plates were removed from the freezer, the cells were further freezed fractured by freezing and thawing and then washed 3× with PBS. The cells were incubated for one hour at room temperature (R/T) with TBS/5% BSA buffer. Cells were then incubated with 100 μl of monoclonal anti-human transglutaminase (IgG) mouse antibody (primary antibody) obtained from Biomedical Technologies Inc. diluted 1:2000 in TBS/1% BSA buffer for two hours at 37° C., and then rinsed six times with wash buffer (TBS/1% BSA/0.05% Tween-20). Cells were next incubated with 100 μl of Fab fragment, peroxidase conjugated anti-mouse IgG antibody (secondary antibody) from Amersham diluted 1:4,000 in wash buffer for two hours at 37° C. and then rinsed three times with wash buffer and three times with PBS. Cells were incubated with substrate solution (4 mg o-phenylene diamine and 3.3 μl 30% H2 O2 in 10 mL 0.1M citrate buffer, pH 5.0) for five minutes at R/T and in darkness (under aluminum foil). […] The absorbance of samples was read at 492 nm in the plate reader. […] Transglutaminase I levels were determined by subtracted background from the readings from each treatment and determining the mean s.d. for the replicates exposed to both antibodies.
The level of TGase-1 was normalized to DNA content of the cells in the same well thus eliminating variation due to differences in cell number. DNA quantitation is a particularly useful indicator of cell number, including keratinocyte cell number, because each cell has to all intents and purposes an identical genome and therefore an identical quantity of DNA. […] Quantitation of DNA was used to normalize the TGase data to cell number. […]

inhibition at 100 µM [1]	inhibition of keratinocyte TG1 level when used alone (in words) ([4]; 2.5×10^-7 M retinol, 10^-4 M Formula A, used alone, compared with 2.5×10^-7 M retinoic acid)	Structure (SMILES)	% INHIBITION, ARAT [2]	dose dependence of decrease in transglutaminase level [3]	decrease of keratinocyte differentiation compared with corresponding retinol treatments ([3]; 2.5×10^-7 M, 2.5×10^-8 M and 2.5×10^-9 M, vs retinol at same concentration)	effect on keratinocyte differentiation vs ethanol control ([3]; all concentrations tested: 2.5×10^-7 M, 2.5×10^-8 M and 2.5×10^-9 M)	mean TGase/DNA × 10^5 ± s.d ([4]; 2.5 × 10^-7 M, 72 hours, n = 3)	activity at 0.25 µM ([4]; 72 h)	mean TGase/DNA × 10^-4 ± s.d ([3]; 2.5 × 10^-7 M)	mean TGase/DNA × 10^-4 ± s.d ([3]; 2.5 × 10^-8 M)	mean TGase/DNA × 10^-4 ± s.d ([3]; 2.5 × 10^-9 M)	activity at 0.25 µM ([4]; 2.5 × 10^-7 M, 72 hours, n = 3)
0%		CCCCCCCC(=O)NC(COC)COC [Formula C]	0%									
		CC1=C(/C=C/C(C)=C/C=C/C(C)=C/C(=O)O)C(C)(C)CCC1 [Retinoic acid]		dose dependent	significantly greater extent	decreased keratinocyte differentiation	39.99 ± 5.28 × 10^5	69%				
	less effective	CC1=C(/C=C/C(C)=C/C=C/C(C)=C/CO)C(C)(C)CCC1 [Retinol]		dose dependent			45.60 ± 3.92 × 10^5		1.14 ± 0.22 × 10^-4	1.89 ± 0.30 × 10^-4	2.70 ± 0.59 × 10^-4	79%
